Assay results published in patent US5210193A, “Piperazine derivatives” (American Cyanamid Company, priority 1990, dated 1993).
In brackets after ≈: the same amount, converted by molar mass. Several values for one entry are separate records, joined by “and”; a condition that tells them apart may be missing. Equal values may be shown once. Read-outs that look alike come from different tables or passages of the source.

Tests used:
Assay in all cases: in vitro antibacterial MIC, agar plate dilution
Assay type in all cases: cell-based
Citrobacter div. K 82-24 = conditions: Citrobacter, DIV.K8224, 18 h, 35° C., read-out: MIC
Procedure, shortened: (§1)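 Read-out is visible growth inhibition on Mueller-Hinton agar dilution plates incubated 18 hours at 35° C after inoculation of ~10^4 CFU (Steers device), with MIC reported in mcg/ml.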

[1] = test system: Enterobacter cloacae VGH 84-39; conditions: Enterobacter cloacae, VGH8439, 18 h, 35° C., read-out: MIC
Procedure, shortened: as §1

[2] = test system: Escherichia coli ATCC 25922; conditions: 35° C.
Procedure, shortened: as §1

[3] = test system: Escherichia coli CMC 84-11; conditions: Escherichia coli, CMC8411, 18 h, 35° C., read-out: MIC
Procedure, shortened: as §1

[4] = test system: Escherichia coli CMC 84-50; conditions: Escherichia coli, CMC8450, 18 h, 35° C., read-out: MIC
Procedure, shortened: as §1

[5] = test system: Escherichia coli VGH 84-19; conditions: Escherichia coli, VGH8419, 18 h, 35° C., read-out: MIC
Procedure, shortened: as §1

[6] = test system: Klebsiella pneumoniae CMC 84-31; conditions: Klebsiella pneumoniae, CMC8431, 18 h, 35° C., read-out: MIC
Procedure, shortened: as §1

[7] = test system: Klebsiella pneumoniae IO 83-5; conditions: Klebsiella pneumoniae, IO835, 18 h, 35° C., read-out: MIC
Procedure, shortened: as §1

[8] = test system: Klebsiella pneumoniae MOR 84-24; conditions: Klebsiella pneumoniae, MOR8424, 18 h, 35° C., read-out: MIC
Procedure, shortened: as §1

[9] = test system: Morganella morganii CMC 84-37; conditions: 35° C.
Procedure, shortened: as §1

[10] = test system: Morganella morganii CMC 84-38; conditions: 35° C.
Procedure, shortened: as §1

[11] = test system: Proteus rettgeri CMC 84-41; conditions: Providencia rettgeri, CMC8441, 18 h, 35° C., read-out: MIC
Procedure, shortened: as §1

[12] = test system: Proteus rettgeri IO 83-21; conditions: Providencia rettgeri, IO8321, 18 h, 35° C., read-out: MIC
Procedure, shortened: as §1

[13] = test system: Providencia stuarti CMC 83-3; conditions: Providencia, CMC833, 18 h, 35° C., read-out: MIC
Procedure, shortened: as §1

[14] = test system: Pseudomonas aeruginosa VGH 84-3; conditions: Pseudomonas aeruginosa, VGH843, 18 h, 35° C., read-out: MIC
Procedure, shortened: as §1

[15] = test system: Serratia marcescens CMC 83-74; conditions: Serratia marcescens, CMC8374, 18 h, 35° C., read-out: MIC
Procedure, shortened: as §1

[16] = test system: Serratia marcescens IO 83-63; conditions: IO8363, 18 hours, 35° C.
Procedure, shortened: as §1

[17] = test system: Serratia marcescens MOR 84-41; conditions: Serratia marcescens, MOR8441, 18 h, 35° C., read-out: MIC
Procedure, shortened: as §1

[18] = test system: Staphylococcus aureus CMC 83-131; conditions: Staphylococcus aureus, CMC83131, 18 h, 35° C., read-out: MIC
Procedure, shortened: as §1

[19] = test system: Staphylococcus aureus K 82-26; conditions: Staphylococcus aureus, K8226, 18 h, 35° C., read-out: MIC
Procedure, shortened: as §1

[20] = test system: Staphylococcus aureus Smith; conditions: 35° C.
Procedure, shortened: as §1

[21] = test system: Staphylococcus aureus VGH 84-45; conditions: 35° C.
Procedure, shortened: as §1

[22] = test system: Staphylococcus aureus VGH 84-47; conditions: Staphylococcus aureus, VGH8447, 18 h, 35° C., read-out: MIC
Procedure, shortened: as §1

[23] = test system: Streptococcus faecalis CMC 83-120; conditions: Enterococcus faecalis, CMC83120, 18 h, 35° C., read-out: MIC
Procedure, shortened: as §1

[24] = test system: Streptococcus faecalis UCI 85-30; conditions: Enterococcus faecalis, UCI8530, 18 h, 35° C., read-out: MIC
Procedure, shortened: as §1

[25] = test system: Streptococcus faecalis VGH 84-69; conditions: Enterococcus faecalis, VGH8469, 18 h, 35° C., read-out: MIC
Procedure, shortened: as §1

[26] = test system: Enterobacter cloacae K 84-10; conditions: Enterobacter cloacae, K8410, 18 h, 35° C., read-out: MIC
Procedure, shortened: as §1

Escherichia coli LL 311 = conditions: Escherichia coli, LL311, 18 h, 35° C., read-out: MIC
Procedure, shortened: as §1

[27] = test system: Pseudomonas aeruginosa LL-1244; conditions: Pseudomonas aeruginosa, LL1244, 18 h, 35° C., read-out: MIC
Procedure, shortened: as §1

[28] = test system: Serratia marcescens VGH 84-30; conditions: Serratia marcescens, VGH8430, 18 h, 35° C., read-out: MIC
Procedure, shortened: as §1

[29] = test system: Staphylococcus aureus ATTC 29213; conditions: 35° C.
Procedure, shortened: as §1

[30] = test system: Streptococcus faecalis VGH 84-65; conditions: Enterococcus faecalis, VGH8465, 18 h, 35° C., read-out: MIC
Procedure, shortened: as §1

[31] = Escherichia coli, ATCC25922, 18 h, read-out: MIC
[32] = Morganella morganii, CMC8437, 18 h, read-out: MIC
[33] = Morganella morganii, CMC8438, 18 h, read-out: MIC
[34] = Staphylococcus aureus, ATTC29213, 18 h, read-out: MIC
[35] = Staphylococcus aureus, 18 h, read-out: MIC
[36] = Staphylococcus aureus, VGH8445, 18 h, read-out: MIC

| Structure (SMILES) | MIC (Citrobacter div. K 82-24) [µg/mL] | MIC [1] [µg/mL] | MIC [3] [µg/mL] | MIC [4] [µg/mL] | MIC [5] [µg/mL] | MIC [6] [µg/mL] | MIC [7] [µg/mL] | MIC [8] [µg/mL] | MIC [11] [µg/mL] | MIC [12] [µg/mL] | MIC [13] [µg/mL] | MIC [14] [µg/mL] | MIC [15] [µg/mL] | MIC [16] [µg/mL] | MIC [17] [µg/mL] | MIC [19] [µg/mL] | MIC [22] [µg/mL] | MIC [23] [µg/mL] | MIC [24] [µg/mL] | MIC [25] [µg/mL] | other results |
| --- | --- | --- | --- | --- | --- | --- | --- | --- | --- | --- | --- | --- | --- | --- | --- | --- | --- | --- | --- | --- | --- |
| O=C(O)c1cn(C2CC2)c2cc(N3CCNC(c4ccco4)C3)c(F)cc2c1=O (centres unmarked) [Example 62, 1-Cyclopropyl-6-fluoro-7-[3-(2-furanvl)-1-piperazinyl]-1,4-dihydro-4-oxo-3-quinolinecarboxylic acid] | 0.12 (≈ 0.302 µM) | 0.12 (≈ 0.302 µM) | 0.03 (≈ 0.0755 µM) | 0.12 (≈ 0.302 µM) | 0.06 (≈ 0.151 µM) | 0.12 (≈ 0.302 µM) | 0.25 (≈ 0.629 µM) | 0.25 (≈ 0.629 µM) | 0.06 (≈ 0.151 µM) | 0.25 (≈ 0.629 µM) | 16 (≈ 40.3 µM) | > 16 | 16 (≈ 40.3 µM) | 1 (≈ 2.52 µM) | 0.5 (≈ 1.26 µM) | 0.06 (≈ 0.151 µM) | 0.03 (≈ 0.0755 µM) | 1 (≈ 2.52 µM) | 1 (≈ 2.52 µM) | 0.5 (≈ 1.26 µM) | MIC ([2]; 18 hours): 0.03 µg/mL and 0.06 µg/mL; MIC ([9]; 18 hours): 0.06 µg/mL (≈ 0.151 µM); MIC ([10]; 18 hours): 0.25 µg/mL (≈ 0.629 µM); MIC [18]: 0.25 µg/mL (≈ 0.629 µM); MIC ([20]; 18 hours): 0.015 µg/mL (≈ 0.0377 µM); MIC ([21]; 18 hours): 0.015 µg/mL (≈ 0.0377 µM) |
| O=C(O)c1cn(C2CC2)c2cc(N3CCNC(c4ccoc4)C3)c(F)cc2c1=O (centres unmarked) [Example 92] | 0.06 (≈ 0.151 µM) | 0.12 (≈ 0.302 µM) | 0.03 (≈ 0.0755 µM) | 0.12 (≈ 0.302 µM) | 0.06 (≈ 0.151 µM) | 0.12 (≈ 0.302 µM) | 0.25 (≈ 0.629 µM) | 0.25 (≈ 0.629 µM) | 0.12 (≈ 0.302 µM) | 0.5 (≈ 1.26 µM) | 8 (≈ 20.1 µM) | 16 (≈ 40.3 µM) | 8 (≈ 20.1 µM) | 1 (≈ 2.52 µM) | 0.25 (≈ 0.629 µM) | 0.12 (≈ 0.302 µM) | 0.12 (≈ 0.302 µM) | 1 (≈ 2.52 µM) | 1 (≈ 2.52 µM) | 1 (≈ 2.52 µM) | MIC [26]: 0.06 µg/mL (≈ 0.151 µM); MIC ([2]; 18 hours): 0.12 µg/mL (≈ 0.302 µM); MIC [2, 31]: 0.06 µg/mL (≈ 0.151 µM); MIC (Escherichia coli LL 311): 0.03 µg/mL (≈ 0.0755 µM); MIC [9, 32]: 0.06 µg/mL (≈ 0.151 µM); MIC [10, 33]: 0.25 µg/mL (≈ 0.629 µM); MIC [27]: 2 µg/mL (≈ 5.03 µM); MIC [28]: 4 µg/mL (≈ 10.1 µM); MIC ([29]; 18 hours): 0.12 µg/mL (≈ 0.302 µM); MIC [29, 34]: 0.06 µg/mL (≈ 0.151 µM); MIC [20, 35]: 0.03 µg/mL (≈ 0.0755 µM); MIC [21, 36]: 0.03 µg/mL (≈ 0.0755 µM); MIC [30]: 0.5 µg/mL (≈ 1.26 µM) |
| CCn1cc(C(=O)O)c(=O)c2cc(F)c(N3CCNC(c4ccoc4)C3)cc21 (centres unmarked) [Example 94, 1-Ethyl-6-fluoro-1,4-dihydro-4-oxo-7-[3-(3-furanyl)-1-piperazinyl]-3-quinolinecarboxylic acid] | 0.25 (≈ 0.649 µM) | 0.5 (≈ 1.3 µM) | 0.12 (≈ 0.311 µM) | 0.25 (≈ 0.649 µM) | 0.25 (≈ 0.649 µM) | 0.5 (≈ 1.3 µM) | 1 (≈ 2.59 µM) | 1 (≈ 2.59 µM) | 0.25 (≈ 0.649 µM) | 1 (≈ 2.59 µM) | 16 (≈ 41.5 µM) | > 16 | 16 (≈ 41.5 µM) | 1 (≈ 2.59 µM) | 0.5 (≈ 1.3 µM) | 0.25 (≈ 0.649 µM) | 0.25 (≈ 0.649 µM) | 4 (≈ 10.4 µM) | 4 (≈ 10.4 µM) | 2 (≈ 5.19 µM) | MIC [26]: 0.25 µg/mL (≈ 0.649 µM); MIC ([2]; 18 hours): 0.5 µg/mL (≈ 1.3 µM); MIC [2, 31]: 0.25 µg/mL (≈ 0.649 µM); MIC (Escherichia coli LL 311): 0.12 µg/mL (≈ 0.311 µM); MIC [9, 32]: 0.12 µg/mL (≈ 0.311 µM); MIC [10, 33]: 0.25 µg/mL (≈ 0.649 µM); MIC [27]: 8 µg/mL (≈ 20.8 µM); MIC [28]: 8 µg/mL (≈ 20.8 µM); MIC [20, 35]: 0.12 µg/mL (≈ 0.311 µM); MIC [21, 36]: 0.12 µg/mL (≈ 0.311 µM); MIC [30]: 2 µg/mL (≈ 5.19 µM) |
| CCn1cc(C(=O)O)c(=O)c2cc(F)c(N3CCN(C)C(c4ccn(C)n4)C3)cc21 (centres unmarked) [Example 109, 1-Ethyl-6-fluoro-1,4-dihydro-7-[4-methyl-3-(1-methyl-1H-pyrazol-3-yl) -1-piperazinyl]-4-oxo-3-quinolinecarboxylic acid] | > 16 | > 16 | 16 (≈ 38.7 µM) | > 16 | > 16 | > 16 | > 16 | > 16 | 32 (≈ 77.4 µM) | > 16 | > 16 | > 16 | > 16 | > 16 | > 16 | > 16 | 2 (≈ 4.84 µM) | > 16 | > 16 | > 16 | MIC [26]: 16 µg/mL (≈ 38.7 µM); MIC [2, 31]: 8 µg/mL (≈ 19.3 µM); MIC (Escherichia coli LL 311): 8 µg/mL (≈ 19.3 µM); MIC [10, 33]: > 16 µg/mL; MIC [27]: > 128 µg/mL; MIC [28]: > 128 µg/mL; MIC ([29]; 18 hours): 1 µg/mL (≈ 2.42 µM); MIC [29, 34]: 0.5 µg/mL (≈ 1.21 µM); MIC [18]: 2 µg/mL (≈ 4.84 µM); MIC [20, 35]: 0.25 µg/mL (≈ 0.605 µM); MIC [21, 36]: 0.5 µg/mL (≈ 1.21 µM); MIC [30]: 16 µg/mL (≈ 38.7 µM) |
